From PMC11012124, “Synthesis of Novel Triazine-Based Chalcones and 8,9-dihydro-7H-pyrimido[4,5-b][1,4]diazepines as Potential Leads in the Search of Anticancer, Antibacterial and Antifungal Agents” (International Journal of Molecular Sciences, 2024)

Experiments:
60 cancer cell lines = assay: NCI-60 one-dose screen (10 μM); assay type: cell-based; details: Homo sapiens; one dose of 10 μM, mean over 60 cancer cell lines; read-out: Mean Growth Percent (MGP)
Description: Additionally, the mean of the growth percentages (MGP) of each compound against all the 60 cancer cell lines is also reported, which is used as one of the selection criteria to continue with tests at five concentration doses.

MOLT-4 = assay: cells; details: Homo sapiens, MOLT-4, 48 h
RPMI-8226 = assay: cells; details: Homo sapiens, RPMI-8226, 48 h
A549/ATCC = assay: cells; details: Homo sapiens, A549, 48 h
EKVX = assay: cells; details: Homo sapiens, 48 h
HOP-62 = assay: cells; details: Homo sapiens, HOP-62, 48 h
HOP-92 = assay: cells; details: Homo sapiens, HOP-92, 48 h
NCI-H226 = assay: cells; details: Homo sapiens, NCI-H226, 48 h
NCI-H23 = assay: cells; details: Homo sapiens, NCI-H23, 48 h
NCI-H322M = assay: cells; details: Homo sapiens, 48 h
COLO 205 = assay: cells; details: Homo sapiens, COLO 205, 48 h
HCC-2998 = assay: cells; details: Homo sapiens, HCC 2998, 48 h
HCT-116 = assay: cells; details: Homo sapiens, HCT-116, 48 h
HCT-15 = assay: cells; details: Homo sapiens, HCT-15, 48 h
HT29 = assay: cells; details: Homo sapiens, HT-29, 48 h
SF-268 = assay: cells; details: Homo sapiens, SF-268, 48 h
SF-295 = assay: cells; details: Homo sapiens, SF-295, 48 h
SF-539 = assay: cells; details: Homo sapiens, SF-539, 48 h
SNB-19 = assay: cells; details: Homo sapiens, SNB-19, 48 h
SNB-75 = assay: cells; details: Homo sapiens, SNB-75, 48 h
U251 = assay: cells; details: Homo sapiens, U-251, 48 h
LOX IMVI = assay: cells; details: Homo sapiens, 48 h
M14 = assay: cells; details: Homo sapiens, M14, 48 h
SK-MEL-5 = assay: cells; details: Homo sapiens, SK-MEL-5, 48 h
UACC-257 = assay: cells; details: Homo sapiens, UACC-257, 48 h
UACC-62 = assay: cells; details: Homo sapiens, UACC-62, 48 h
OVCAR-3 = assay: cells; details: Homo sapiens, OVCAR-3, 48 h
786-0 = assay: cells; details: Homo sapiens, 786-0, 48 h
A498 = assay: cells; details: Homo sapiens, A498, 48 h
ACHN = assay: cells; details: Homo sapiens, 48 h
RXF 393 = assay: cells; details: Homo sapiens, RXF 393, 48 h
UO-31 = assay: cells; details: Homo sapiens, UO-31, 48 h
PC-3 = assay: cells; details: Homo sapiens, PC-3, 48 h
MDA-MB-231/ATCC = assay: cells; details: Homo sapiens, MDA-MB-231, 48 h
HS 578T = assay: cells; details: Homo sapiens, 48 h
BT-549 = assay: cells; details: Homo sapiens, BT-549, 48 h
MDA-MB-468 = assay: cells; details: Homo sapiens, MDA-MB-468, 48 h

## Cc1ccc(C2CC(c3ccc(S(=O)(=O)NCCNc4nc(Nc5ccc(F)cc5)nc(N(C)C)n4)cc3)=Nc3c(N)nc(N)nc3N2)cc1 (stereo not shown) [31b]
60 cancer cell lines
  activity at 10 µM: 48.4%
MOLT-4
  GI50: 2.2 µM
MOLT-4; read-out: LC50
  CC50: 7.53 µM
RPMI-8226
  GI50: 2.94 µM
RPMI-8226; read-out: LC50
  CC50: > 100 µM
A549/ATCC
  GI50: > 100 µM
A549/ATCC; read-out: LC50
  CC50: > 100 µM
EKVX
  GI50: 5.84 µM
EKVX; read-out: LC50
  CC50: > 100 µM
HOP-62
  GI50: > 100 µM
HOP-62; read-out: LC50
  CC50: > 100 µM
HOP-92
  GI50: 2.54 µM
HOP-92; read-out: LC50
  CC50: 21 µM
NCI-H226
  GI50: > 100 µM
NCI-H226; read-out: LC50
  CC50: > 100 µM
NCI-H23
  GI50: 78.8 µM
NCI-H23; read-out: LC50
  CC50: > 100 µM
NCI-H322M
  GI50: > 100 µM
NCI-H322M; read-out: LC50
  CC50: > 100 µM
COLO 205
  GI50: 11.5 µM
COLO 205; read-out: LC50
  CC50: > 100 µM
HCC-2998
  GI50: 2.93 µM
HCC-2998; read-out: LC50
  CC50: 41.1 µM
HCT-116
  GI50: 3.81 µM
HCT-116; read-out: LC50
  CC50: > 100 µM
HCT-15
  GI50: 4.95 µM
HCT-15; read-out: LC50
  CC50: > 100 µM
HT29
  GI50: 2.27 µM
HT29; read-out: LC50
  CC50: 4.65 µM
SF-268
  GI50: 7.53 µM
SF-268; read-out: LC50
  CC50: > 100 µM
SF-295
  GI50: 6.6 µM
SF-295; read-out: LC50
  CC50: > 100 µM
SF-539
  GI50: 3.29 µM
SF-539; read-out: LC50, SF-539, 48 h
  CC50: 78.9 µM
SNB-19
  GI50: 13.1 µM
SNB-19; read-out: LC50
  CC50: > 100 µM
SNB-75
  GI50: > 100 µM
SNB-75; read-out: LC50
  CC50: > 100 µM
U251; U251, 48 h
  GI50: 7.08 µM
U251; read-out: LC50
  CC50: > 100 µM
LOX IMVI
  GI50: 2.09 µM
LOX IMVI; read-out: LC50, LOX IMVI, 48 h
  CC50: 5.11 µM
M14
  GI50: 4.56 µM
M14; read-out: LC50
  CC50: > 100 µM
SK-MEL-5
  GI50: 4.98 µM
SK-MEL-5; read-out: LC50
  CC50: 20.6 µM
UACC-257
  GI50: 26 µM
UACC-257; read-out: LC50
  CC50: > 100 µM
UACC-62
  GI50: 20.9 µM
UACC-62; read-out: LC50
  CC50: > 100 µM
OVCAR-3
  GI50: 9.93 µM
OVCAR-3; read-out: LC50
  CC50: > 100 µM
786-0
  GI50: 7.06 µM
786-0; read-out: LC50
  CC50: > 100 µM
A498
  GI50: > 100 µM
A498; read-out: LC50
  CC50: > 100 µM
ACHN
  GI50: > 100 µM
ACHN; read-out: LC50
  CC50: > 100 µM
RXF 393
  GI50: 2.27 µM
RXF 393; read-out: LC50
  CC50: 9.12 µM
UO-31
  GI50: > 100 µM
UO-31; read-out: LC50
  CC50: > 100 µM
PC-3
  GI50: 3.33 µM
PC-3; read-out: LC50
  CC50: > 100 µM
MDA-MB-231/ATCC
  GI50: 3.86 µM
MDA-MB-231/ATCC; read-out: LC50
  CC50: > 100 µM
HS 578T
  GI50: 19.4 µM
HS 578T; read-out: LC50
  CC50: > 100 µM
BT-549
  GI50: 5.46 µM
BT-549; read-out: LC50
  CC50: 59.4 µM
MDA-MB-468
  GI50: 2.72 µM
MDA-MB-468; read-out: LC50
  CC50: 8.52 µM
